ChEMBL document CHEMBL3885881, “DrugMatrix”

Species on record: Rattus norvegicus
Assay: DrugMatrix - Regimen: Daily Repeat
Assay type: toxicity, organism-based, Sprague-Dawley
Design: regimen Daily Repeat, gender Male, age 6-8 weeks
Settings: in vivo, po, 1200 mg/kg, route oral GAVAGE, dose level High, vehicle 100 % WATER; for ABSOLUTE BASOPHIL / ABSOLUTE EOSINOPHIL / ABSOLUTE LYMPHOCYTE / ABSOLUTE MONOCYTE / ABSOLUTE SEGMENTED NEUTROPHIL / BASOPHIL / EOSINOPHIL / ERYTHROCYTE COUNT / HEMATOCRIT / HEMOGLOBIN / LEUKOCYTE COUNT / LYMPHOCYTE / MEAN CORPUSCULAR HEMOGLOBIN / MEAN CORPUSCULAR HEMOGLOBIN CONCENTRATION / MEAN CORPUSCULAR VOLUME / MONOCYTE / NEUTROPHIL / NUCLEATED RED BLOOD CELLS / PLATELET COUNT: tissue Blood; for ALANINE AMINOTRANSFERASE / ALBUMIN / ALKALINE PHOSPHATASE / ASPARTATE AMINOTRANSFERASE / BLOOD UREA NITROGEN / CARBON DIOXIDE / CHLORIDE / CHOLESTEROL / CREATINE PHOSPHOKINASE / CREATININE / GLUCOSE / LACTATE DEHYDROGENASE / LIPASE / PHOSPHORUS / POTASSIUM / SODIUM / TOTAL BILIRUBIN / TOTAL PROTEIN / URIC ACID: tissue Plasma

## CCC1(C)CC(=O)NC1=O (stereo unspecified) [ETHOSUXIMIDE]
72 h, time 3 day
  ABSOLUTE BASOPHIL: 0 CELLS/uL
  ABSOLUTE EOSINOPHIL: 0 CELLS/uL
  ABSOLUTE LYMPHOCYTE: 11632.67 CELLS/uL
  ABSOLUTE MONOCYTE: 44.67 CELLS/uL
  ABSOLUTE SEGMENTED NEUTROPHIL: 722.67 CELLS/uL
  BASOPHIL: 0%
  EOSINOPHIL: 0%
  ERYTHROCYTE COUNT: 5.96 x10E6/uL
  HEMATOCRIT: 38.63%
  HEMOGLOBIN: 15.43 G/DL
  LEUKOCYTE COUNT: 12.4 x10E3/uL
  LYMPHOCYTE: 94%
  MEAN CORPUSCULAR HEMOGLOBIN: 26 pg
  MEAN CORPUSCULAR HEMOGLOBIN CONCENTRATION: 40 G/DL
  MEAN CORPUSCULAR VOLUME: 65 fL
  MONOCYTE: 0.33%
  NEUTROPHIL: 5.67%
  NUCLEATED RED BLOOD CELLS: 0 /100WBC
  PLATELET COUNT: 1151 x10E3/uL
  ALANINE AMINOTRANSFERASE: 70.67 u/L
  ALBUMIN: 4.4 G/DL
  ALKALINE PHOSPHATASE: 269.67 u/L
  ASPARTATE AMINOTRANSFERASE: 95 u/L
  BLOOD UREA NITROGEN: 16.33 mg/dL
  CARBON DIOXIDE: 28.67 mmol/L
  CHLORIDE: 97 MEQ/L
  CHOLESTEROL: 100.67 mg/dL
  CREATINE PHOSPHOKINASE: 183.67 u/L
  CREATININE: 0.14 mg/dL
  GLUCOSE: 133 mg/dL
  LACTATE DEHYDROGENASE: 123 u/L
  LIPASE: 10.67 u/L
  PHOSPHORUS: 12.53 mg/dL
  POTASSIUM: 7.49 MEQ/L
  SODIUM: 140.33 MEQ/L
  TOTAL BILIRUBIN: 0.2 mg/dL
  TOTAL PROTEIN: 5.97 G/DL
  URIC ACID: 1.9 mg/dL
120 h, time 5 day
  ABSOLUTE BASOPHIL: 0 CELLS/uL
  ABSOLUTE EOSINOPHIL: 57.67 CELLS/uL
  ABSOLUTE LYMPHOCYTE: 11720.67 CELLS/uL
  ABSOLUTE MONOCYTE: 238.33 CELLS/uL
  ABSOLUTE SEGMENTED NEUTROPHIL: 2116.67 CELLS/uL
  BASOPHIL: 0%
  EOSINOPHIL: 0.33%
  ERYTHROCYTE COUNT: 6.03 x10E6/uL
  HEMATOCRIT: 37.47%
  HEMOGLOBIN: 14.97 G/DL
  LEUKOCYTE COUNT: 14.13 x10E3/uL
  LYMPHOCYTE: 83%
  MEAN CORPUSCULAR HEMOGLOBIN: 24.8 pg
  MEAN CORPUSCULAR HEMOGLOBIN CONCENTRATION: 39.97 G/DL
  MEAN CORPUSCULAR VOLUME: 62.07 fL
  MONOCYTE: 1.67%
  NEUTROPHIL: 15%
  NUCLEATED RED BLOOD CELLS: 0 /100WBC
  PLATELET COUNT: 1343 x10E3/uL
  ALANINE AMINOTRANSFERASE: 98.67 u/L
  ALBUMIN: 4.7 G/DL
  ALKALINE PHOSPHATASE: 209.33 u/L
  ASPARTATE AMINOTRANSFERASE: 133.67 u/L
  BLOOD UREA NITROGEN: 15 mg/dL
  CARBON DIOXIDE: 25.67 mmol/L
  CHLORIDE: 96.67 MEQ/L
  CHOLESTEROL: 108 mg/dL
  CREATINE PHOSPHOKINASE: 425.33 u/L
  CREATININE: 0.16 mg/dL
  GLUCOSE: 121 mg/dL
  LACTATE DEHYDROGENASE: 480.67 u/L
  LIPASE: 10.67 u/L
  PHOSPHORUS: 11.4 mg/dL
  POTASSIUM: 6.59 MEQ/L
  SODIUM: 141.93 MEQ/L
  TOTAL BILIRUBIN: 0.13 mg/dL
  TOTAL PROTEIN: 6.37 G/DL
  URIC ACID: 1.63 mg/dL
